Assay results as given in BigSolDB 2.1.

CCCc1ncc(C[n+]2ccccc2C)c(N)n1.Cl.[Cl-]
solubility (mole fraction)
Conditions | 273.15 K | 278.15 K | 283.15 K | 288.15 K | 293.15 K | 298.15 K | 303.15 K | 308.15 K | 313.15 K
in 1,4-dioxane | – | – | – | 5.76e-05 | 7.08e-05 | 8.42e-05 | 9.99e-05 | 0.000115 | 0.000132
in acetone | 0.000227 | 0.000259 | 0.000291 | 0.000325 | 0.000359 | 0.000401 | 0.000444 | 0.000487 | 0.000533
in acetonitrile | 7.2e-06 | 9.3e-06 | 1.15e-05 | 1.42e-05 | 1.68e-05 | 1.98e-05 | 2.35e-05 | 2.79e-05 | 3.27e-05
in cyclohexanone | 0.000117 | 0.000146 | 0.000181 | 0.000217 | 0.000252 | 0.000287 | 0.000327 | – | –
in ethanol | 5.33e-05 | 6.8e-05 | 9.17e-05 | 0.000124 | 0.000159 | 0.000195 | 0.000232 | 0.000273 | 0.000319
in ethyl acetate | 2.48e-05 | 3.34e-05 | 4.3e-05 | 5.26e-05 | 6.41e-05 | 7.65e-05 | 8.91e-05 | 0.000104 | 0.00012
in isobutanol | 9.3e-06 | 1.3e-05 | 1.71e-05 | 2.18e-05 | 2.71e-05 | 3.33e-05 | 4.11e-05 | 4.98e-05 | 5.86e-05
in isopropanol | 1.12e-05 | 1.63e-05 | 2.25e-05 | 2.89e-05 | 3.83e-05 | 4.87e-05 | 6.13e-05 | 7.76e-05 | 9.49e-05
in methanol | 0.000272 | 0.000376 | 0.000476 | 0.00059 | 0.000722 | 0.000854 | 0.001 | 0.00115 | 0.0013
in n-butanol | 1.79e-05 | 2.34e-05 | 3.1e-05 | 3.89e-05 | 4.88e-05 | 6.01e-05 | 7.53e-05 | 9.25e-05 | 0.000109
in n-octanol | 2e-06 | 3.3e-06 | 4.9e-06 | 6.7e-06 | 9.5e-06 | 1.38e-05 | 1.86e-05 | 2.41e-05 | 3.01e-05
in n-propanol | 2.98e-05 | 4.12e-05 | 5.26e-05 | 6.51e-05 | 7.7e-05 | 9.09e-05 | 0.000106 | 0.000124 | 0.000142
